Our source for the EC50 and IC50 values is ChEMBL document CHEMBL1201862, “PubChem BioAssay data set” (2004).

Calls of active or inactive are those of the source. Cut-off read from the data, not from the text of the source, for most assays here: actives have a measured EC50 and inactives only a lower limit.

Experiment [1] concerns the target T1, Heat shock factor protein 1 (Mus musculus, UniProt P38532).
T1 sequence (P38532 whole entry): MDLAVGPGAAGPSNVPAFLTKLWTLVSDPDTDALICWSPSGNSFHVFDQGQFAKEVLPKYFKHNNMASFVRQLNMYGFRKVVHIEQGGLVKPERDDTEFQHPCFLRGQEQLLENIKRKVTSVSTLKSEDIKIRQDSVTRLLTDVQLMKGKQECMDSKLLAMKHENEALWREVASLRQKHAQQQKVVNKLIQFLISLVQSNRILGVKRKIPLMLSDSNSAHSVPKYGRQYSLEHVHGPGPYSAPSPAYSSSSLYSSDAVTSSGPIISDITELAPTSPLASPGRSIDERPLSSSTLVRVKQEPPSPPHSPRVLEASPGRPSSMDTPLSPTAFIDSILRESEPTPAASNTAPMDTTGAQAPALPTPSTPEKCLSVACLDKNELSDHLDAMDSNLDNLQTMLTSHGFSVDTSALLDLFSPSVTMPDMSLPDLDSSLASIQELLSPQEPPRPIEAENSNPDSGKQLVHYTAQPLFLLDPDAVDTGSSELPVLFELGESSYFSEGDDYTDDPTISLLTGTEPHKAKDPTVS
The experiment in a line: decrease of HSF1-responsive luciferase luminescence – cell-based, NIH3T3, dose retest, confirmation (AID 2382).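 Note: NIH3T3 fibroblasts with HSF1-driven luciferase reporter stressed by proteasome inhibitor MG132; luminescence from HSF1-driven luciferase expression after 8 hours of MG132 stress.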 In kind it is functional.

Experiment [2] has as its target T2, RNA-binding protein pos-1 (Caenorhabditis elegans, UniProt G5EF15).
T2 sequence (G5EF15 whole entry): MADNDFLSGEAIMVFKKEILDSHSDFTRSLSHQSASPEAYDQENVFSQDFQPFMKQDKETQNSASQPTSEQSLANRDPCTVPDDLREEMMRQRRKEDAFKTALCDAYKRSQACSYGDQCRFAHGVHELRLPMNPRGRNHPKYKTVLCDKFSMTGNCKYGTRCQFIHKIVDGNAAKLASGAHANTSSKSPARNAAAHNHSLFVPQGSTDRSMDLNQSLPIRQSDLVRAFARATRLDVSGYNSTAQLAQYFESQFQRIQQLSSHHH
Briefly: disruptors of C. elegans POS-1 RNA interaction – biochemical, fluorescence polarization, dose response (AID 1964).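 Note: purified POS-1 fused to maltose binding protein made in E. coli; potency of compounds blocking POS-1 binding to fluorescent RNA.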 In general terms: Polarisation of emitted light reports the rotation of a fluorescent probe.

The target of experiment [3] is T3, Zinc finger protein mex-5 (Caenorhabditis elegans, UniProt Q9XUB2).
T3 sequence (Q9XUB2 whole entry): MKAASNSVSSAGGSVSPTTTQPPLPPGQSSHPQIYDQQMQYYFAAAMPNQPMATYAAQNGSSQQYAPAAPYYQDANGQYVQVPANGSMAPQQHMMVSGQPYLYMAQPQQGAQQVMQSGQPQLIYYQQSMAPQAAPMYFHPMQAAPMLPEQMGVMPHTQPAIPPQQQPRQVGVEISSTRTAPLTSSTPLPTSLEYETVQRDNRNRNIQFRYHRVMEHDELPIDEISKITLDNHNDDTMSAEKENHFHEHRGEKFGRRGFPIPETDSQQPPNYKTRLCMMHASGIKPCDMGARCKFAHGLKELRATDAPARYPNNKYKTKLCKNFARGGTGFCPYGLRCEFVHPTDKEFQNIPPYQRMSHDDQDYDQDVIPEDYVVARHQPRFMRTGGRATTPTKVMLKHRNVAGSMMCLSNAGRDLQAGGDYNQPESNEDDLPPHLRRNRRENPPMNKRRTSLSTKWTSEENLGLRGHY
Briefly: potency of MEX-5 RNA-binding blockers – biochemical, C. elegans, fluorescence polarization, dose response (AID 1960).

Experiment [4] deals with T4, Rac GTPase-activating protein 1 (Homo sapiens, UniProt Q9H0H5).
T4 sequence (Q9H0H5 whole entry): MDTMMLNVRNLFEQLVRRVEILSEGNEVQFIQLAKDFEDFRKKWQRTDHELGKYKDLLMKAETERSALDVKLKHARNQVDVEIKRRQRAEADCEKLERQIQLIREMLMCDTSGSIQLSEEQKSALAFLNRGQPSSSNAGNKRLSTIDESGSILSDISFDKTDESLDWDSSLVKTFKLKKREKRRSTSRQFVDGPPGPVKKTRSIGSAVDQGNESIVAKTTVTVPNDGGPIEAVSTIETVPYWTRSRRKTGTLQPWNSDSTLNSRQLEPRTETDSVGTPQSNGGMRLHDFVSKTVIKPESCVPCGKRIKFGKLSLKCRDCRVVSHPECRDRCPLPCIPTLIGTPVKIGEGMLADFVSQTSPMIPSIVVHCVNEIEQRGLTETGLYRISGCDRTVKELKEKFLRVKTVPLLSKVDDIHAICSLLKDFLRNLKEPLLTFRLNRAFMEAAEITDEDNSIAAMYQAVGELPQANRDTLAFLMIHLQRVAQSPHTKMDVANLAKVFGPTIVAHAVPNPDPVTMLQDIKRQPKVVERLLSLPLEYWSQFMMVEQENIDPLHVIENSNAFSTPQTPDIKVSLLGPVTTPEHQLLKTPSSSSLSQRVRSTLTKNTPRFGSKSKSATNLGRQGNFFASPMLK
Briefly: blockers of MgcRacGAP-driven Rac1 GTP hydrolysis – biochemical, ADP Hunter fluorescence, primary and confirmatory, confirmation (AID 624330). Format: functional.

Experiment [5] deals with T5, Corticotropin-releasing factor receptor 2/Corticotropin-releasing factor-binding protein (Homo sapiens, UniProt P24387+Q13324).
T5 sequence (Q13324 whole entry): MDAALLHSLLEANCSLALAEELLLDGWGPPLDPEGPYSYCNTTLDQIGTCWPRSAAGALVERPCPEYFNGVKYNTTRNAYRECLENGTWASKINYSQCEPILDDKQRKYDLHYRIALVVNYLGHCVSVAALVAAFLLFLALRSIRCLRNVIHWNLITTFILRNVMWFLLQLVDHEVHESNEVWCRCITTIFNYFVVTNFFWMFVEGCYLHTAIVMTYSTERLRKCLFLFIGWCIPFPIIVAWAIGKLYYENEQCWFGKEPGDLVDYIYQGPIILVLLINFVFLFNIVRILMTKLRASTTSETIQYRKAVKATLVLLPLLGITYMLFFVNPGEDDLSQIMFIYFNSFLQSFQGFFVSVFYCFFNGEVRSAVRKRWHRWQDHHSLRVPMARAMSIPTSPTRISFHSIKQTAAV
T5 sequence (P24387 whole entry): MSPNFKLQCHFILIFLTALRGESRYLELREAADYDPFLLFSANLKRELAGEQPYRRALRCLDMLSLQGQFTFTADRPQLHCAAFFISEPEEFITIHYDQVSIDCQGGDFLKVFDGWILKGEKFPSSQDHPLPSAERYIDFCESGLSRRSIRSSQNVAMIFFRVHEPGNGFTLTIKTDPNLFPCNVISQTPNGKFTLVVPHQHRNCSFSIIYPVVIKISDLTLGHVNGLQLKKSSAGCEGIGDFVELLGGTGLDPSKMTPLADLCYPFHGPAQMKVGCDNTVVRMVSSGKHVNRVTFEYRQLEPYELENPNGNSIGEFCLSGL
Briefly: Dose Response confirmation of uHTS hits for small molecule antagonists of the CRF-binding protein and CRF-R2 receptor complex. Format: functional. The note with it: read-out: IC50_Mean.

The target of experiment [6] is T5, Corticotropin-releasing factor receptor 2/Corticotropin-releasing factor-binding protein. Briefly: activators of CRF receptor 2 with binding protein – uHTS hits, confirmation (AID 602473). To be noted: read-out: EC50_Mean. Format: functional.

`Cc1ccc2c(c1)N(CC(=O)O)C(=O)CO2`: the EC50 in experiment [1] is on record as > 195 µM (not active).
Take `O=C(O)c1cc(S(=O)(=O)N(Cc2ccccc2)c2ccccc2Cl)ccc1Cl`: in experiment [1], the EC50 is > 195 µM (not active).
Consider `COc1cccc(C(=O)NNc2nc(C)cc(C)n2)c1`, for which the EC50 in experiment [2] was > 300 µM (not active); in experiment [3] it was 127 µM (active).
`Oc1ccc(-c2csc(Nc3ncccn3)n2)cc1`: in experiment [4], the IC50 was 21.4 µM (active).
On to `CC(C)Cc1ccc(C#N)c(SCC(N)=O)n1`, for which the EC50 in experiment [1] is listed as > 195 µM (not active).
As to `O=C(CN1CCN(c2ccccn2)CC1)Nc1ccc(F)cc1`, the IC50 in experiment [4] was 78.9 µM (active).
As for `CC(C)C(=O)N1c2ccccc2N=C2CCCC(O)=C2C1c1ccc(N(C)C)cc1` (stereo not given), the EC50 in experiment [1] is recorded as > 195 µM (not active).
On to `CCCC(C)NC(=O)c1ccc(C2SCC(=O)N2Cc2ccco2)cc1` (stereo not given), for which the EC50 in experiment [2] and in experiment [3] was > 300 µM (not active) in each case.
With `COc1ccc(NC(=O)C(=O)NCC(=O)Nc2cccc(C(F)(F)F)c2)cc1`, in experiment [5], the IC50 was > 47.1 µM (inactive). Further, the EC50 in experiment [6] was > 53 µM (inactive).
Regarding `COc1cc(/C=C/C(=O)OCC(=O)NCCC2=CCCCC2)ccc1O`, in experiment [4], the IC50 was 49 µM (active).
As to `O=C(c1cccc([N+](=O)[O-])c1)c1ccc2c(c1)OCCOCCOCCO2`, in experiment [5], the IC50 was > 47.1 µM (inactive). Moreover, the EC50 in experiment [6] was > 53 µM (inactive).
Regarding `CCN(CC)P(=O)(NC(=O)c1cccn1C)N(CC)CC`, the EC50 in experiment [1] is recorded as > 195 µM (not active).
Turning to `Nc1nc(CN2CCc3ccccc3C2)nc(Nc2ccccc2)n1`, in experiment [5], the IC50 was > 47.1 µM (inactive). Moreover, the EC50 in experiment [6] was > 53 µM (inactive).
Turning to `C#CCOc1ccccc1CNC1CCN(Cc2ccccc2)CC1`, the IC50 in experiment [4] is 64.9 µM (active).
Take `COC(=O)c1cccc(N2C(=O)C3CC=CCC3C2=O)c1` (stereo not given): the EC50 in experiment [1] was > 100 µM (not active).
In the case of `CCN(C(=O)COC(=O)Cc1cccc2ccccc12)C1CCS(=O)(=O)C1` (stereo not given), the IC50 in experiment [5] is > 47.1 µM (inactive). The EC50 in experiment [6] was > 53 µM (inactive).
Regarding `COC(=O)C1=C(C)N(Cc2ccco2)C(=O)C1`, the EC50 in experiment [1] is given as > 195 µM (not active).
Consider `CC1=CC(C)(C)N2C(=O)C3(C(C#N)=C(N)OC4=C3C(=O)CCC4)c3c(C)c(C)cc1c32` (stereo not given), for which the EC50 in experiment [2] and in experiment [3] was > 300 µM (not active) in each case.
Turning to `COc1ccccc1C(=O)OCC(=O)c1cccc([N+](=O)[O-])c1`, the EC50 in experiment [1] is > 195 µM (not active).
`CCOC(=O)c1cc(CC)sc1NC=C1C(=O)NC(=S)NC1=O`: the values for the EC50 in experiment [2] and in experiment [3] were > 300 µM (not active) and 15 µM (active), respectively.
For `COc1ccc(C2c3ccc(O)cc3Oc3ncn(Cc4ccco4)c(=N)c32)cc1OC` (stereo not given), in that order: > 300 µM (not active) and > 300 µM (not active).
For `COc1cccc(F)c1C(=O)NC(=O)Nc1ccc2nc(C)oc2c1`, in that order: 17.8 µM (active) and 17.4 µM (active).
In the case of `COc1ccc(N2CCN(c3ccc(C(N)=O)cc3[N+](=O)[O-])CC2)cc1`, the IC50 in experiment [4] was 158 µM (active).
On to `COc1ccccc1-c1cc(C(=O)NN)[nH]n1`, for which the IC50 in experiment [5] was > 47.1 µM (inactive). Also, in experiment [6], the EC50 is > 53 µM (inactive).
Take `CC1CC(C)CN(CC(=O)NC(c2ccccc2)c2ccccc2)C1` (stereo not given): the IC50 in experiment [4] is 231 µM (active).
In the case of `CCOC(=O)c1[nH]c2ccc(OC)cc2c1NC(=O)c1ccccc1C(=O)O`, the IC50 in experiment [4] is 109 µM (active).
In the case of `COc1ccc(CNC(=O)CN2CCN(c3ccc(F)cc3)CC2)cc1`, in experiment [5], the IC50 is > 47.1 µM (inactive). Further, the EC50 in experiment [6] is > 53 µM (inactive).
Turning to `Cc1ccc(/C(O)=C/c2nc3cc(C)ccc3oc2=O)cc1`, the EC50 was 7.64 µM (inconclusive) in experiment [2] and 1.64 µM (inconclusive) in experiment [3].
On the same counts, the results for `Cc1ccc(NC(=O)CCS(=O)(=O)c2cc3c(cc2Cl)NC(=O)CO3)cc1` are > 300 µM (not active) and > 300 µM (not active).
Consider `N=C(Cc1ccc([N+](=O)[O-])cc1)NOC(=O)c1ccc(Br)cc1`, for which the IC50 in experiment [5] is 9.38 µM (active). Further, the EC50 in experiment [6] was > 53 µM (inactive).
Take `CC(C)c1ccc(CNc2ccc(N3CCOCC3)cc2)cc1`: in experiment [4], the IC50 is 12.4 µM (active).
With `CCOc1ccccc1Nc1ccnc2cc(Cl)ccc12`, the IC50 in experiment [5] is > 47.1 µM (inactive). For the same molecule, the EC50 in experiment [6] was > 53 µM (inactive).
With `CCn1c(S)nc2c(=O)n(C)c(=O)n(C)c21`, the IC50 in experiment [4] is 21.1 µM (active).
For the molecule `Cc1nn(-c2ccccc2)c(C)c1NC(=O)COC(=O)c1ccccc1OC(F)F`, the IC50 in experiment [5] is > 47.1 µM (inactive). The EC50 in experiment [6] was > 53 µM (inactive).
On to `COc1cc(C(=O)NCc2ccccc2Cl)ccc1OCC(=O)N1CCOCC1`, for which, in experiment [5], the IC50 was > 47.1 µM (inactive). In experiment [6], the EC50 is > 53 µM (inactive).
For `Clc1cc(-c2ccc(/C=N/n3cnnc3)o2)ccc1Br`, the EC50 was 59.4 µM (active) in experiment [2] and 81.6 µM (active) in experiment [3].
For `CC(C)OCCCn1/c(=N/C(=O)c2cccs2)c(C#N)cc2c(=O)n3ccccc3nc21`, in that order: > 300 µM (not active) and > 300 µM (not active).
As for `Oc1ccc(/C=N/NC2=NCCCCC2)c(O)c1`, in experiment [4], the IC50 is 43.2 µM (active).
`Cc1ccccc1[N+](=O)[O-]`: in experiment [5], the IC50 is > 47.1 µM (inactive). Further, in experiment [6], the EC50 was > 53 µM (inactive).
